Patent publication US12514266B2, “Composition containing quercetagetin” (Chenguang Biotech Group Co., Ltd., priority 2020, dated 2026)

How the values were obtained:
[1] = Determination of DPPH free radical scavenging ability; type: biochemical; details: absolute ethanol, 30° C., 30 min, 517 nm
Experimental: (§1) Each of the composition of Examples 9-17, as well as single-component quercetagetin, 6-hydroxykaempferol, patuletin was taken, and the detection of DPPH and hydroxyl radical scavenging ability was performed. The specific test methods are as follows.
[…], 6-hydroxykaempferol, patuletin, and compositions 9-17 were used to prepare sample solutions with concentrations of 1, 2, 3, 4, 5, and 6 μg/ml in absolute ethanol. Then, DPPH was prepared into a 2×10^−4 mol/L solution with absolute ethanol, and 2 mL of blank and sample solution were accurately absorbed and mixed with 2 mL of DPPH solution, respectively, the resultants were placed in a water bath at 30° C. in the dark for 30 min, and the absorbance A (blank) and Asample (sample) were measured at the wavelength of 517 nm.

[2] = Determination of hydroxyl radical scavenging ability (salicylic acid method); type: biochemical; details: 37° C., 15 min, 510 nm
Experimental: as §1
Quercetin, 6-hydroxykaempferol, patuletin, and compositions 9-17 were used to prepare sample solutions with concentrations of 100, 150, 200, 250, 300 μg/ml in absolute ethanol. 9 mmol/L salicylic acid-ethanol solution, 9 mmol/L FeSO4 solution and 8.8 mmol/L H2O2 solution were prepared. Then, different samples were added according to the order in the following table, and placed in a water bath at 37° C. for 15 min, and the absorbance at 510 nm was measured.

[3] = Antioxidant effect in fish oil powder (peroxide value); details: 40° C., 28 days; for Peroxide value of fish oil powder with an addition amount of 10 ppm: 10 ppm (based on active ingredients); for Peroxide value of fish oil powder with an addition amount of 100 ppm: 100 ppm (based on active ingredients)
Experimental: After the antioxidant and fish oil powder were evenly mixed, the resultants were placed in an incubator at 40° C., and samples were taken in 28 days to measure the peroxide value.

[4] = Antioxidant effect in lipids: peroxide value of butter; details: 150 ppm
Experimental: 5 parts of chicken oil and butter were taken respectively, each of which is 100 grams. Each 3 groups of chicken oil experimental groups and butter experimental groups were set up, and the composition of Example 6 was added according to the addition amount of 4, 6 and 8 ppm respectively; each 1 group of chicken oil control group and butter control group were set up, and ethoxyquin was added in an addition amount of 150 ppm; each 1 group of chicken oil blank group and butter blank group were set up, without adding any additives. The additives in each group were mixed evenly with the lipid, placed in a constant temperature incubator at 40° C., and samples were taken at 0, 3, 7, 14, 21 and 28 days to determine their peroxide value.

Compound | DPPH (IC50 μg/ml), half clearance [1] | Hydroxyl radical scavenging ability (IC50 μg/ml), half clearance [2] | Peroxide value of fish oil powder with an addition amount of 10 ppm [3] | Peroxide value of fish oil powder with an addition amount of 100 ppm [3] | peroxide value of butter ([4]; Day 0, 40° C.) | peroxide value of butter ([4]; Day 3, 40° C.) | peroxide value of butter ([4]; Day 7, 40° C.) | peroxide value of butter ([4]; Day 14, 40° C.) | peroxide value of butter ([4]; Day 21, 40° C.) | peroxide value of butter ([4]; Day 28, 40° C.)
O=c1c(O)c(-c2ccc(O)cc2)oc2cc(O)c(O)c(O)c12 [6-hydroxykaempferol] | 23.62 µg/mL | 500 µg/mL | 142 mmol/kg | 121 mmol/kg | – | – | – | – | – | –
O=c1c(O)c(-c2ccc(O)c(O)c2)oc2cc(O)c(O)c(O)c12 [Quercetagetin, 3,3,4,5,6,7-hexahydroxyflavone] | 14.82 µg/mL | 412 µg/mL | 76.5 mmol/kg | 57.3 mmol/kg | – | – | – | – | – | –
CCOc1ccc2c(c1)C(C)=CC(C)(C)N2 [Ethoxyquin, ethoxyquin] | – | – | – | – | 1.41 ± 0.15 mmol/kg | 1.44 ± 0.142 mmol/kg | 1.62 ± 0.104 mmol/kg | 1.66 ± 0.075 mmol/kg | 1.82 ± 0.1 mmol/kg | 2.02 ± 0.197 mmol/kg
COc1c(O)cc2oc(-c3ccc(O)c(O)c3)c(O)c(=O)c2c1O [Patuletin, patuletin] | 31.98 µg/mL | 595 µg/mL | 120 mmol/kg | 109 mmol/kg | – | – | – | – | – | –
